According to US20200288710A1, “SUBSTITUTED SULPHONAMIDES FOR CONTROLLING ANIMAL PESTS” (BAYER CROPSCIENCE AKTIENGESELLSCHAFT, priority 2016, published 2020):

What was measured:
Format in all cases: in vivo
Myzus persicae [1] = assay: Myzus persicae oral test; details: 120 h, 20 ppm, oral uptake, after 5 days, read-out: efficacy
Summary of the method: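 Compound dissolved in acetone, diluted in water, then mixed 50:150 μl with IPL41 insect medium (33%+15% sugar). Mixed-population green peach aphids feed through a parafilm seal on the solution; mortality scored as % efficacy after 5 days (100% = all killed).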

Meloidogyne incognita = Meloidogyne incognita test; details: 336 h, lettuce, after 14 days, read-out: nematicidal efficacy (formation of galls)
Summary of the method: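 Active compound in acetone, diluted with water, added to sand-filled vessels with M. incognita eggs/larvae and lettuce seeds. After 14 days, efficacy scored by root gall formation: 100% = no galls, 0% = galls equal to untreated control.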

Myzus persicae [2] = assay: Myzus persicae spray test (Chinese cabbage leaf discs); details: foliar, 120 h, after 5-6 days, read-out: efficacy
Summary of the method: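 Chinese cabbage leaf discs infested with all stages of green peach aphid were sprayed with compound formulated in acetone/DMF and emulsifier-containing water. Efficacy in % was scored after 5-6 days, with 100% meaning all aphids killed and 0% none killed.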

| Compound | pest or weed control at 20 ppm (Myzus persicae [1]) | pest or weed control at 20 ppm (Meloidogyne incognita) | pest or weed control at 500 g/ha (Myzus persicae [2]) | pest or weed control at 100 g/ha (Myzus persicae [2]; 100 g/ha) |
| --- | --- | --- | --- | --- |
| CCc1ccccc1S(=O)(=O)NC(=O)c1cc(C)n(-c2ncccc2Cl)n1 [Example 284] | 100% | 90% | 100% |  |
| Cn1cc(C(=O)NS(=O)(=O)Cc2ccccc2Cl)nc1-c1ccccc1Cl [Example 62] | 100% | 90% | 90% |  |
| CCc1ccccc1-c1nc(C(=O)NS(=O)(=O)c2ccccc2C)cn1C [Example 497] | 100% | 90% | 90% |  |
| Cn1cc(C(=O)NS(=O)(=O)c2c(F)cccc2C(F)(F)F)nc1-c1c(F)cccc1F [Example 371] | 100% | 90% | 90% |  |
| Cn1cc(C(=O)NS(=O)(=O)c2ccc(Cl)s2)nc1-c1c(F)cccc1F [Example 352] | 100% | 100% | 90% |  |
| CCSc1ccccc1S(=O)(=O)NC(=O)c1cn(C)c(-c2c(F)cccc2F)n1 [Example 169] | 100% | 90% | 100% |  |
| Cn1cc(C(=O)NS(=O)(=O)c2cccc3c2OCC3)nc1-c1c(F)cccc1F [Example 317] | 100% | 90% | 90% |  |
| CCc1ccccc1S(=O)(=O)NC(=O)c1cn(C)c(-c2cccc3ccccc23)n1 [Example 503] | 100% | 90% | 90% |  |
| COc1cccc(OC)c1S(=O)(=O)NC(=O)c1cn(C)c(-c2c(F)cccc2F)n1 [Example 378] | 100% | 90% |  | 90% |
| Cn1cc(C(=O)NS(=O)(=O)c2ccc(Br)cc2F)nc1-c1c(F)cccc1F [Example 437] | 100% | 90% | 100% |  |
| Cn1cc(C(=O)NS(=O)(=O)c2sc(Cl)cc2Br)nc1-c1ccccc1Cl [Example 426] | 100% | 90% | 100% |  |
| Cn1cc(C(=O)NS(=O)(=O)c2ccccc2Br)nc1-c1cccc(Cl)c1Cl [Example 555] | 100% | 90% | 90% |  |
| Cn1cc(C(=O)NS(=O)(=O)c2c(Cl)cc(Cl)cc2Cl)nc1-c1c(F)cccc1F [Example 435] | 100% | 90% | 100% |  |
| COc1ccccc1S(=O)(=O)NC(=O)c1cn(C)c(-c2cccc(Cl)c2Cl)n1 [Example 567] | 100% | 90% | 100% |  |
| Cc1[nH]c(-c2ccc(Cl)cc2)nc1C(=O)NS(=O)(=O)C(C)C [Example 235] | 100% | 90% | 100% |  |
| Cn1cc(C(=O)NS(=O)(=O)c2cc(Cl)cnc2Cl)nc1-c1c(F)cccc1F [Example 343] | 90% | 90% | 100% |  |
| Cc1ccccc1S(=O)(=O)NC(=O)c1cn(C)c(-c2cc(F)ccc2F)n1 [Example 520] | 100% | 100% | 90% |  |
| COc1ccc(Br)cc1S(=O)(=O)NC(=O)c1cn(C)c(-c2c(F)cccc2Cl)n1 [Example 156] | 100% | 90% | 100% |  |
| CCSc1cccc(Cl)c1S(=O)(=O)NC(=O)c1cn(C)c(-c2c(F)cccc2F)n1 [Example 179] | 100% | 90% | 90% |  |
| CCn1cc(C(=O)NS(=O)(=O)c2c(Cl)cccc2Cl)nc1-c1ccccc1Cl [Example 69] | 100% | 90% | 90% |  |
| Cc1ccsc1S(=O)(=O)NC(=O)c1cn(C)c(-c2cccc(Cl)c2Cl)n1 [Example 560] | 100% | 100% | 100% |  |
| CC(C)S(=O)(=O)NC(=O)c1cn(C)c(-c2c(Cl)cccc2Cl)n1 [Example 81] | 90% | 100% | 90% |  |
| Cc1cc(C(=O)NS(=O)(=O)c2ccccc2Br)nn1-c1ncccc1Cl [Example 283] | 100% | 90% | 100% |  |

| Compound | pest or weed control at 20 ppm (Myzus persicae [1]) | pest or weed control at 20 ppm (Meloidogyne incognita) | pest or weed control at 500 g/ha (Myzus persicae [2]) | pest or weed control at 100 g/ha (Myzus persicae [2]; 100 g/ha) |
| --- | --- | --- | --- | --- |
| Cn1cc(C(=O)NS(=O)(=O)c2ccc(Cl)cc2)nc1-c1c(Cl)cccc1Cl [Example 43] | 90% | 100% | 90% |  |
| CC(C)Nc1cccc(F)c1S(=O)(=O)NC(=O)c1cn(C)c(-c2c(F)cccc2F)n1 [Example 178] | 100% | 100% | 90% |  |
| Cn1cc(C(=O)NS(=O)(=O)c2ccccc2OC(F)(F)F)nc1-c1c(F)cccc1F [Example 118] | 100% | 90% | 100% |  |
| CCc1ccccc1S(=O)(=O)NC(=O)c1cc(OC)n(-c2ccccc2Cl)n1 [Example 281] | 100% | 100% | 90% |  |
| Cc1cc(S(=O)(=O)NC(=O)c2cn(C)c(-c3c(F)cccc3F)n2)c(C)s1 [Example 182] | 100% | 100% | 90% |  |
| Cn1cc(C(=O)NS(=O)(=O)c2ccccc2OC(F)(F)F)nc1-c1ccccc1Cl [Example 55] | 100% | 90% | 90% |  |
| CCc1ccsc1S(=O)(=O)NC(=O)c1cn(C)c(-c2c(F)cccc2F)n1 [Example 419] | 100% | 90% | 100% |  |
| Cc1cc(C(=O)NS(=O)(=O)c2ccccc2Cl)nn1-c1ncccc1Cl [Example 273] | 100% | 90% | 100% |  |
| Cc1ccc(S(=O)(=O)NC(=O)c2cn(C)c(-c3c(F)cccc3F)n2)c(C)c1 [Example 443] | 100% | 100% | 90% |  |
| COc1ccc(F)cc1S(=O)(=O)NC(=O)c1cn(C)c(-c2ncccc2F)n1 [Example 596] | 100% | 90% | 100% |  |
| CCc1ccc(C)c(S(=O)(=O)NC(=O)c2cn(C)c(-c3c(F)cccc3F)n2)c1 [Example 395] | 90% | 90% | 100% |  |
| Cn1cc(C(=O)NS(=O)(=O)c2c(Cl)cccc2Cl)nc1-c1ncccc1F [Example 594] | 100% | 90% | 90% |  |
| COc1ccc(F)cc1S(=O)(=O)NC(=O)c1cn(C)c(-c2ccccc2Cl)n1 [Example 427] | 100% | 90% | 100% |  |
| Cn1cc(C(=O)NS(=O)(=O)c2ccccc2Br)nc1-c1c(F)cccc1F [Example 119] | 100% | 90% | 100% |  |
| CCCc1ccccc1S(=O)(=O)NC(=O)c1cn(C)c(-c2c(F)cccc2F)n1 [Example 403] | 100% | 90% | 100% |  |
| Cn1cc(C(=O)NS(=O)(=O)c2cccc(F)c2F)nc1-c1c(F)cccc1F [Example 320] | 100% | 90% | 100% |  |
| Cn1cc(C(=O)NS(=O)(=O)c2cccc(Cl)c2)nc1-c1c(F)cccc1Cl [Example 113] | 100% | 100% | 90% |  |
| COc1ccc(Cl)c(S(=O)(=O)NC(=O)c2cn(C)c(-c3ncccc3F)n2)c1 [Example 514] | 100% | 90% | 100% |  |
| COc1ccc(Cl)c(S(=O)(=O)NC(=O)c2nc(-c3ccccc3Cl)n(C)n2)c1 [Example 15] | 100% | 90% | 90% |  |
| Cc1ccccc1-c1nc(C(=O)NS(=O)(=O)c2c(Cl)cccc2Cl)cn1C [Example 99] | 100% | 90% | 90% |  |
| Cc1cc(C(=O)NS(=O)(=O)c2ccccc2Cl)nn1-c1ncccc1Br [Example 295] | 100% | 90% | 100% |  |
| Cn1cc(C(=O)NS(=O)(=O)c2ccccc2Cl)nc1-c1sccc1Cl [Example 547] | 90% | 100% | 90% |  |
| CCc1ccsc1S(=O)(=O)NC(=O)c1cn(C)c(-c2ncccc2Cl)n1 [Example 605] | 100% | 90% | 100% |  |
